Laboratory results published in patent publication EP2435019B1, “DODECA-2E,4E-DIENE AMIDES AND THEIR USE AS MEDICAMENTS AND COSMETICS” (Dr. August Wolff GmbH & Co. KG Arzneimittel, priority 2009, dated 2010).

Tests used:
[1] = test system: Arachidonoylethanolamide Transport (AEAT); assay: Cellular uptake of [3H]-AEA in U937 cells (assay C); assay type: cell-based; details: Homo sapiens, U-937; [3H]-AEA uptake, assay C (Tables 2 and 3)
Anandamide transport = Anandamide transport (human) cellular functional assay (assay F); assay type: cell-based; details: human U-937 cells, 0.1 µM [3H]-Anandamide, 20 min (assay F)
Method: Anandamide transport is determined using human U-937 cells as receptor source. [3H]-Anandamide (0.1 Ci/mmol), final concentration 0.1 µM is used as substrate. AM-404 is used as reference compound. Reactions are carried out in KRH buffer (pH 7.4) at 37°C for 20 min. The reaction is terminated by rapid vacuum filtration onto glass fiber filters. Radioactivity trapped onto filters is determined and compared to control values in order to ascertain any interactions of test compound with anandamide uptake (Hiiliard C.J. The movement of N-arachidonylethanolamide (anandamide) across cellular membranes. Chem. Physics Lipids. 2008;108:123-134, with modifications).

[2] = target: T1, human recombinant Fatty acid amide hydrolase (Homo sapiens, UniProt O00519); assay: Inhibition of human recombinant FAAH, fluorometric method (assay G); assay type: biochemical; details: human recombinant enzyme, AMC-anandamide substrate (assay G)
T1 sequence (O00519 1-579): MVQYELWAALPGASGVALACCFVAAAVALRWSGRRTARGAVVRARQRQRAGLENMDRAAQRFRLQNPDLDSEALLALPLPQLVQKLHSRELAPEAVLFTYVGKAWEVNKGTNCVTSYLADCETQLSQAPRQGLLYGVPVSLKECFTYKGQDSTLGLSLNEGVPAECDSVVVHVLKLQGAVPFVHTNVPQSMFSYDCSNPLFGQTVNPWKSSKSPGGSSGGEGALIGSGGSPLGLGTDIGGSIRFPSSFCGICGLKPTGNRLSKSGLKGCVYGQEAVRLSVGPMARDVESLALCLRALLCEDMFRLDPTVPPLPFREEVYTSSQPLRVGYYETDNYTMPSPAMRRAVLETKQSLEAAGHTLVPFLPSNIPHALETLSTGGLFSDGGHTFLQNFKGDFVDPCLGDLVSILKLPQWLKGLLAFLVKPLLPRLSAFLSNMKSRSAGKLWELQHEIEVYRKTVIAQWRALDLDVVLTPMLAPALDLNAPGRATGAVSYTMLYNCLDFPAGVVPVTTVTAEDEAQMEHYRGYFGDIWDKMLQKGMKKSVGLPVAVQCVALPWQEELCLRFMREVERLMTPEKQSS
Method: FAAH activity is measured using the modified method described by Omeir et al., Arachidonoyl ethanolamide-[1,2-14C] as a substrate for anandamide amidase. Life Sci. 1995;56(23-24):1999-2005. Human recombinant enzyme is preincubated with reference compound (methylarachidonlyfluorophosphonate, MAFP) and test compounds for 30 min at room temperature in 50 mM Tris containing 1 mM EDTA and 0.1% fatty acid free BSA (pH 8.0). Substrate (7-amino-4-methyl coumarin-arachidonamide, AMC-anandamide) is then added and incubated for 30 min at room temperature. The reaction is stopped by the addition of 2.5 µl of 10 µM URB597. Released 7-amino-4-methyl coumarin (AMC) is detected by fluorometry in order to ascertain any interactions of test compounds with the FAAH enzyme.

[3] = Critical micelle concentration (CMC) measurement, dye micellization; assay type: physicochemical; details: fluorescein dye micellization in water, pH 6.9, room temperature
Method: Dye micellization was carried out with a modified version of the method described by Eliyahu et al., Novel dextran-spermine conjugates as transfecting agents: comparing water-soluble and micellar polymers. […] Experiments were carried out on 96-well microtiter plates (excitation at 485 nm, emission at 535 nm). Since the emission of fluorescein is pH-dependent, the pH of the mixture was kept constant at 6.9. The CMC range was determined as the concentration range where the first statistically significant increase in fluorescence was detected.

FAAH = target: T2, FAAH (Sus scrofa, UniProt Q9TUI8); assay: Fatty acid amide hydrolase (FAAH) inhibition, pig brain homogenate (assay D); assay type: biochemical
T2 construct: 165 µl of diluted pig brain homogenate; from tissue; host or cells: pig brain homogenate
T2 sequence (Q9TUI8 1-579): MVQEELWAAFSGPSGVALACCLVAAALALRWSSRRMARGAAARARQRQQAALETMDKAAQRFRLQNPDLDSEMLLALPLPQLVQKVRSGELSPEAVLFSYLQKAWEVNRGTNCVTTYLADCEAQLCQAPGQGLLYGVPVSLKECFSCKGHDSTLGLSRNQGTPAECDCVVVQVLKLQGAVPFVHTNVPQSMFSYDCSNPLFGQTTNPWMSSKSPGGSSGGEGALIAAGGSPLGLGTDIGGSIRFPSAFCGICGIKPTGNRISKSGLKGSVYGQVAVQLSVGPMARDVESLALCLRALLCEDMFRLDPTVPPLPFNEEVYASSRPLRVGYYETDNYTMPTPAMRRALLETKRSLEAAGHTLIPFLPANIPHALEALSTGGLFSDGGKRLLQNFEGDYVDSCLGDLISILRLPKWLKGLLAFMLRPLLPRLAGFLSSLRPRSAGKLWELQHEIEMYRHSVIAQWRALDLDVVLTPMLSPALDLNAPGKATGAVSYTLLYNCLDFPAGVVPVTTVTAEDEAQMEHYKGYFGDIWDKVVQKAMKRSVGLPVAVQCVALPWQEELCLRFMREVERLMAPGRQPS
Method: FAAH activity was assessed using pig brain homogenate according to the method described by Omeir et al., Arachidonoyl ethanolamide-[1,2-14C] as a substrate for anandamide amidase. Life Sci. 1995;56(23-24):1999-2005, and adapted by Fowler et al., Ibuprofen inhibits rat brain deamidation of anandamide at pharmacologically relevant concentrations. Mode of inhibition and structure-activity relationship. J Pharmacol Exp Ther. 1997 Nov;283(2):729-34. Briefly, 10 µl of test compounds at the adequate concentration or solvent were incubated at 37°C for 20 min with 165 µl of diluted pig brain homogenate in 10 mM Tris-HCl and 1 mM EDTA, pH 7.6 (corresponding to 100 µg/ml of total protein), 1% w/v fatty acid free BSA (Sigma, San Louis, MO, US) and 25 µl of a mixture 1:1 of nonradioactive AEA [^3H]-AEA (60 Ci mmol^-1) (concentration in the assay was 2 µM). Successively, 400 µl of a mixture 1:1 (v/v) of methanol:chloroform was added at each sample and, after vigorous vortexing, aqueous and organic phases were separated by centrifugation at 10000 rpm for 10 min. The radioactivity associated to the [^3H]-ethanolamine (produced by FAAH-catalysed breakdown of [^3H]-AEA) was measured upon addition of 3 ml of Ultima Gold scintillation liquid (Perkin Elmer, Waltham, MA, US) to 200 µl of the aqueous (upper) phase, using a Beckman LS6500 scintillation counter. Results were expressed as % of FAAH activity vs. pig brain homogenate treated only with solvent.

CB1 = target: T3, CB1 (Homo sapiens, UniProt P21554); assay: Radioligand displacement assay on CB1 receptor; assay type: binding
T3 construct: purchased Perkin Elmer RBHCB1M
T3 sequence (P21554 whole entry): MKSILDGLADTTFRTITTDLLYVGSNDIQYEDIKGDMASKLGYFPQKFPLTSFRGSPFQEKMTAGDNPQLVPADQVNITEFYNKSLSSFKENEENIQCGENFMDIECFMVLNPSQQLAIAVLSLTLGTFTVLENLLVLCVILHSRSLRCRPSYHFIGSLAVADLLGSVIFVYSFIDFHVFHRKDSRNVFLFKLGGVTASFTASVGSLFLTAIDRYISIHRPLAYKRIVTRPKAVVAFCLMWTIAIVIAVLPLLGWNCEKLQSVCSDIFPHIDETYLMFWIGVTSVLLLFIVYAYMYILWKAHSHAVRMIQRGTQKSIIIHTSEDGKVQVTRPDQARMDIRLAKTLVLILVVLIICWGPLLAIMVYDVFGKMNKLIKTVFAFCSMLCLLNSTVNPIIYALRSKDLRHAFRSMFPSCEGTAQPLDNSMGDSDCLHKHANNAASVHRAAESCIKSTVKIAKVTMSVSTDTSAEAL
Method: (§1) For the CB1 receptor, binding experiments were performed in the presence of 0.39 nM of the radioligand [^3H]CP55,940 (168 Ci/mmol) (Perkin Elmer, Waltham, MA, US) at 30°C in siliconized glass vials together with 7.16 µg of membrane recombinantly over-expressing CB1 (No. RBHCB1M, Perkin Elmer, Waltham, MA, US), which was resuspended in 0.2 mL (final volume) binding-buffer (50 mM TRIS-HCl, 2.5 mM EGTA, 5 mM MgCl2, 0.5 mg/mL fatty acid free BSA, pH 7.4). Test compounds were present at varying concentrations and the nonspecific binding of the radioligand was determined in the presence of 10 µM CP55,940 (Tocris Cookson Ltd., Bristol, UK). After 1.5 h incubation, the suspension was rapidly filtered through 0.05% polyethylenimine pre-soaked GF/C glass fiber filters on a 96-well cell harvester and washed nine times with 0.5 mL ice-cold washing-buffer (50 mM TRIS-HCl, 2.5 mM EGTA, 5 mM MgCl2, 2% BSA, pH 7.4). Radioactivity on filters was measured with a Beckman LS 6500 scintillation counter in 3 mL Ultima Gold scintillation liquid (Perkin Elmer, Waltham, MA, US). Data collected from three independent experiments performed in triplicates were normalized between 100% and 0% specific binding for [^3H]CP55,940. […] Derived from the dissociation constant (KD) of [^3H]CP55,940 and the concentration-dependent displacement (IC50 value), inhibition constants (Ki) of competitor compounds were calculated using the Cheng-Prusoff equation [Ki = IC50/(1+ L/KD)].

CB2 = CB2 (Homo sapiens, UniProt P34972); assay: Radioligand displacement assay on CB2 receptor; assay type: binding; set-up: purchased Perkin Elmer RBXCB2M
Chain of CB2 (P34972 whole entry): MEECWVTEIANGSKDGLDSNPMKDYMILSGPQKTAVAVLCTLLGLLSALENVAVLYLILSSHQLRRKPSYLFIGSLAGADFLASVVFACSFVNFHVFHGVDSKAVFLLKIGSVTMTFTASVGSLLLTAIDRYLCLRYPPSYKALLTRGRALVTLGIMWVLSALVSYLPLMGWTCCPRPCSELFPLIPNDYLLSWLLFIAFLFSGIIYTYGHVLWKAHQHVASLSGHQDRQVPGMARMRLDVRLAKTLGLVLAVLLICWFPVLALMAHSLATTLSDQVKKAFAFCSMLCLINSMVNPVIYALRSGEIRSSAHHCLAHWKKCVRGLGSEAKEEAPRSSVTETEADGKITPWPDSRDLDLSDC
Method: as §1
For CB2-receptor binding studies 3.8 µg of membrane recombinantly over-expressing CB2 (No. RBXCB2M, Perkin Elmer, Waltham, MA, US) were resuspended in 0.6 mL binding buffer (see above) together with 0.11 nM of the radioligand [^3H]CP55,940. The CB2-binding assay was conducted in the same manner as for CB1.

| Structure (SMILES) | AEAT inhibition at 1 µM (Anandamide transport) | FAAH inhibition at 1 µM [2] | further results |
| --- | --- | --- | --- |
| CCCCCCC/C=C/C=C/C(=O)NCCc1ccco1 [Example 16] | 57 % of control | 42 % of control | EC50 [1]: 890 ± 400 nM |
| CCCCCCC/C=C/C=C/C(=O)NCc1ccccc1 [Example 25] | 47 % of control | 2 % of control | – |
| CCCCCCC/C=C/C=C/C(=O)NCc1cccn1C [Example 5] | – | – | CMC [3]: < 1 µM; inhibition at 1 µM (FAAH; read-out: maximal inhibition of FAAH activity): 32% |
| CCCCCCC/C=C/C=C/C(=O)NCCc1ccsc1 [Example 19] | 34 % of control | 53 % of control | EC50 [1]: 520 ± 470 nM |
| CCCCCCC/C=C/C=C/C(=O)NCc1ccoc1 [Example 4, (2E,4E)-N-(furan-3-ylmethyl)dodeca-2,4-diene amide] | – | – | CMC [3]: < 3 µM; inhibition at 2 µM (FAAH; read-out: max. inhibition of FAAH activity): 40% |
| CCCCCCC/C=C/C=C/C(=O)N1CCCCC1 [Compound E, (2E,4E)-1-(piperidin-1-yl)dodeca-2,4-dien-1-one] | – | – | CMC [3]: >5 µM; EC50 [1]: > 10000 nM; Ki (CB1; displacement of 0.39 nM [3H]CP55,940, membrane recombinantly over-expressing CB1, read-out: Receptor affinity Ki CB1): 2190 ± 180 nM; affinity towards CB1 (in words) (CB1; summary of Table 3): moderate affinity; FAAH inhibition at 1 µM (FAAH; 1 µM, pig brain homogenate (assay D)): <10 % of control; Ki (CB2; displacement of 0.11 nM [3H]CP55,940, membrane recombinantly over-expressing CB2, read-out: Receptor affinity Ki CB2): 2640 ± 224 nM; affinity towards CB2 (in words) (CB2; summary of Table 3): moderate affinity |
| CCCCCCC/C=C/C=C/C(=O)NC(CO)Cc1cccs1 (centres unmarked) [Example 49] | 25 % of control | 25 % of control | – |
| CCCCCCC/C=C/C=C/C(=O)Nc1ccccc1 [Example 24] | 30 % of control | 2 % of control | – |
| CCCCCCC/C=C/C=C/C(=O)NCc1ccc(OC)cc1 [Example 7, (2E,4E)-N-(4-methoxybenzyl)dodeca-2,4-diene amide] | 28 % of control | 6 % of control | effect on FAAH activity in combination with the FAAH inhibitor URB597 (FAAH; Figure 3, low nM concentrations): synergistic effects |
| CCCCCCC/C=C/C=C/C(=O)NCCc1ccccn1 [Example 68] | 41 % of control | -2 % of control | – |
| CCCCCCC/C=C/C=C/C(=O)Nc1ccc(Oc2ccc(C(F)(F)F)cc2)cc1 [Example 84] | 30 % of control | 30 % of control | – |
| CCCCCCC/C=C/C=C/C(=O)Nc1ccc(C2=NCCS2)cc1 [Example 37] | 38 % of control | 9 % of control | – |
| CCCCCCC/C=C/C=C/C(=O)Nc1nccs1 [Example 20] | 47 % of control | -16 % of control | EC50 [1]: 780 ± 250 nM |
| CCCCCCC/C=C/C=C/C(=O)NCc1nnn(C(=O)N(C)C)n1 [Example 39] | 120 % of control | 101 % of control | – |
| CCCCCCC/C=C/C=C/C(=O)Nc1nc2ccccc2s1 [Example 35] | 42 % of control | 61 % of control | – |
| CCCCCCC/C=C/C=C/C(=O)NCC(C)O (centres unmarked) [Example 41] | 27 % of control | 45 % of control | – |
| CCCCCCC/C=C/C=C/C(=O)NCCc1ccnc(OC)c1 [Example 47] | 50 % of control | 6 % of control | – |
| CCCCCCC/C=C/C=C/C(=O)Nc1nc2cc(C)c(C)cc2s1 [Example 72] | 37 % of control | 30 % of control | – |
| CCCCCCC/C=C/C=C/C(=O)NCC(O)c1ccc(OC)cc1 (centres unmarked) [Example 56] | 36 % of control | -1 % of control | – |
